According to PubChem BioAssay (NCI):
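In this assay, cells in 96-well plates receive the compound at five concentrations for 48 hours. Endpoints are linearly interpolated between the surrounding concentrations. Abbreviation: GI50, concentration required for 50% inhibition of growth. Definition used: TGI = concentration required for complete inhibition of growth.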

Columns and labels:
Assay in all cases: growth of human tumour cells (NCI), 48 h
[1] = test system: SNB-19 CNS
[2] = test system: NCI/ADR-RES ovarian
[3] = test system: COLO 205 colon
[4] = test system: HT29 colon
[5] = test system: MALME-3M melanoma
[6] = test system: K-562 leukemia
[7] = test system: MOLT-4 leukemia
[8] = test system: IGROV1 ovarian
[9] = test system: UACC-257 melanoma
[10] = test system: SK-OV-3 ovarian

SMILES	TGI [1] [µM]	TGI [2] [µM]	TGI [3] [µM]	TGI [4] [µM]	TGI [5] [µM]	TGI [6] [µM]	TGI [7] [µM]	TGI [8] [µM]	TGI [9] [µM]	TGI [10] [µM]	GI50 [1] [µM]	GI50 [2] [µM]	GI50 [3] [µM]	GI50 [4] [µM]	GI50 [5] [µM]	GI50 [6] [µM]	GI50 [7] [µM]	GI50 [8] [µM]	GI50 [9] [µM]	GI50 [10] [µM]
COc1cc(N=Nc2cccc(S(=O)(=O)O)c2)c(C)cc1N=Nc1ccc(/C=C/c2ccc(N=[N+]([O-])c3ccc(/C=C/c4ccc(N=Nc5cc(C)c(N=Nc6cccc(S(=O)(=O)O)c6)cc5OC)cc4)c(S(=O)(=O)O)c3)cc2S(=O)(=O)O)cc1	> 100	> 100	> 100	> 100	> 100	> 100	> 100	> 100	> 100	> 100	–	–	–	–	–	–	–	–	–	–
COC(=O)C(C)N1C(=O)c2ccccc2I1OC(C)=O (stereo not given)	> 100	> 100	35	97.5	54	> 100	45.7	> 100	> 100	> 100	> 100	> 100	14.4	26.3	16.8	41.6	22	37.2	> 100	> 100
CC(C)(C)OC(=O)NC(Cc1ccccc1)C(=O)N[C@H]1c2ccsc2/C(=N/O)[C@H]1O (stereo not given in full)	> 100	> 100	> 100	> 100	> 100	> 100	> 100	> 100	> 100	> 100	–	–	–	–	–	–	–	–	–	–
